Among the data in patent publication US20250051327A1, “MALT-1 MODULATORS” (EXSCIENTIA AI LIMITED, priority 2020, published 2025) are IC50 values, retold here.

The IC50 is the concentration that inhibits the measured activity by half.

The target in the assay is Recombinant human MALT-1 (amino acids 340-824) (Homo sapiens (Human), UniProt Q9UDY8). Description: MALT-1 inhibition assay (fluorogenic substrate Ac-LRSR-Rh110-DP). It is filed as biochemical. The following applies: recombinant human MALT-1, substrate Ac-LRSR-Rh110-DP. The method, then: MALT-1 paracaspase activity was measured using the fluorogenic substrate Ac-LRSR-Rh110-DP (purchased from Biosantan GmbH). […] The reaction was initiated by addition of substrate. Final concentrations of MALT-1 and substrate were 3 nM and 10 μM respectively. Reactions were incubated in the dark for 60 minutes at 25° C. […] Percent inhibition values were calculated from relative fluorescence units at different doses and fitted to a 4-parameter logistic curve to determine IC50 values (see Table 1).
Chain of Recombinant human MALT-1 (amino acids 340-824) (Q9UDY8 340-824): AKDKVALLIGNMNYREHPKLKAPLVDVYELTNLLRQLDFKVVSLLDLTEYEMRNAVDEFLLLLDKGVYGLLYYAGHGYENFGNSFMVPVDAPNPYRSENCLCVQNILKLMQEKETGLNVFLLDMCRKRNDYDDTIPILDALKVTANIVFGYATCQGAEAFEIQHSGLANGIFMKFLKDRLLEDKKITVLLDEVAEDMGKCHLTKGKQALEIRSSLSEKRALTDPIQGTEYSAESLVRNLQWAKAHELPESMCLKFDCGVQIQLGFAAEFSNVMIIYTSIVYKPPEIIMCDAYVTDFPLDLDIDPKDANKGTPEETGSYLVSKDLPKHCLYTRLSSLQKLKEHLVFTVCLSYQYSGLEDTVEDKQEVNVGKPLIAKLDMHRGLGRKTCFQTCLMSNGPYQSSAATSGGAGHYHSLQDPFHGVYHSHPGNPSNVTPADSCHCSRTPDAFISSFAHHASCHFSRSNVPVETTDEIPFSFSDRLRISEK
On to `CO[C@@H](C)c1c(Nc2ccc([C@H](N(C)C(=O)C3CCN(C(=O)CO)CC3)C(F)(F)F)cc2)cnn2cc(Cl)nc12` [CPD0084141, N-[(1S)-1-[4-[[2-chloro-8-[(1S)-1-methoxyethyl]imidazo[1,2-b]pyridazin-7-yl]amino]phenyl]-2,2,2-trifluoro-ethyl]-1-(2-hydroxyacetyl)-N-methyl-piperidine-4-carboxamide], for which the IC50 came out at 43 nM.
The value for `CN(C(=O)[C@H]1CNC(=O)C1)[C@H](c1ccc(N2CCCc3c2cnc2cc(Cl)nn32)cc1)C(F)(F)F` (stereo in doubt) [CPD0077244, (3 rel-R)—N-[(1R)-1-[4-(4-chloro-2,3,7,10-tetrazatricyclo[7.4.0.0^2,6]trideca-1(9),3,5,7-tetraen-10-yl)phenyl]-2,2,2-trifluoro-ethyl]-N-methyl-5-oxo-pyrrolidine-3-carboxamide] was 581 nM; that for `C[C@@H]1CCN(c2ccc([C@H](N(C)C(=O)[C@H]3CNC(=O)C3)C(F)(F)F)cc2)c2cnc3cc(Cl)nn3c21` [CPD0074560] was 43 nM.
Then `CO[C@@H](C)c1c(Nc2ccc([C@H](N(C)C(=O)C3CC4(C3)CS(=O)(=O)C4)C(F)(F)F)cc2)cnn2cc(Cl)nc12` [CPD0084934], with 54 nM.
The value for `CC(=O)N1CCC(C(=O)N(C)[C@@H](c2ccc(N3CCCc4c3cnc3cc(Cl)nn43)nc2)C(F)(F)F)CC1` [CPD0074051, 1-acetyl-N-[(1S)-1-[6-(4-chloro-2,3,7,10-tetrazatricyclo[7.4.0.0^2,6]trideca-1(9),3,5,7-tetraen-10-yl)-3-pyridyl]-2,2,2-trifluoro-ethyl]-N-methyl-piperidine-4-carboxamide] was 154 nM; that for `COc1ccc2ncc(Nc3ccc([C@H](N(C)C(=O)C4CCN(C(C)=O)CC4)C(F)(F)F)cc3)c([C@H]3CCOC3)c2n1` [CPD0082479] was 111 nM.
In the case of `CN(C(=O)[C@@H]1CNC(=O)N1)[C@@H](c1ccc(N2CCCc3c2cnc2cc(Cl)nn32)cc1)C(F)(F)F` (relative stereo) [CPD0075578, (4rel S)-N-[(1S)-1-[4-(4-chloro-2,3,7,10-tetrazatricyclo[7.4.0.0^2,6]trideca-1(9),3,5,7-tetraen-10-yl)phenyl]-2,2,2-trifluoro-ethyl]-N-methyl-2-oxo-imidazolidine-4-carboxamide], the IC50 turned out to be 51 nM.
The value for `C[C@H]1CCN(c2ccc([C@H](N(C)C(=O)[C@@H]3CNC(=O)C3)C(F)(F)F)cc2)c2cnc3cc(Cl)nn3c21` [CPD0074569] was 30 nM; that for `COc1ccc2ncc(Nc3ccc([C@@H](N(C)C(=O)[C@H]4CC[S@](=N)(=O)CC4)C(F)(F)F)cc3)c([C@@H](C)OC)c2n1` (stereo in doubt) [CPD0077189, (1 rel-s,4rel-s)-1-imino-N-methyl-1-oxo-N-[(1R)-2,2,2-trifluoro-1-[4-({6-methoxy-4-[(1 rel-R)-1-methoxyethyl]-1,5-naphthyridin-3-yl}amino)phenyl]ethyl]-1λ^6-thiane-4-carboxamide] was 274 nM.
In the case of `CO[C@@H](C)c1c(Nc2ccc([C@H](N(C)C(=O)[C@H]3CC[S@](=N)(=O)CC3)C(F)(F)F)cc2)cnn2cc(Cl)nc12` (relative stereo) [CPD0082473, (1rel-r, 4rel-r) N-[(1S)-1-[4-[[2-chloro-8-[(1 S)-1-methoxyethyl]imidazo[1,2-b]pyridazin-7-yl]amino]phenyl]-2,2,2-trifluoro-ethyl]-1-imino-N-methyl-1-oxo-thiane-4-carboxamide], the IC50 is 52 nM.
On to `C[C@@H]1CCN(c2ccc([C@H](N(C)C(=O)[C@@H]3CNC(=O)C3)C(F)(F)F)cc2)c2cnc3cc(Cl)nn3c21` [CPD0074548], for which the IC50 came out at 46 nM.
The value for `CN1C[C@@H](C(=O)N(C)[C@@H](c2ccc(N3CCCc4c3cnc3cc(Cl)nn43)cc2)C(F)(F)F)NC1=O` (relative stereo) [CPD0075574, (4rel S)-N-[(1S)-1-[4-(4-chloro-2,3,7,10-tetrazatricyclo[7.4.0.0^2,6]trideca-1(9),3,5,7-tetraen-10-yl)phenyl]-2,2,2-trifluoro-ethyl]-N,1-dimethyl-2-oxo-imidazolidine-4-carboxamide] was 80 nM.
